{
  "source": "paper PMC3759356",
  "about": "(Cancer cell, 2013)",
  "target": "T1, BARD1 (Homo sapiens, UniProt Q99728)",
  "T1 sequence (Q99728 568-777 limits assumed)": "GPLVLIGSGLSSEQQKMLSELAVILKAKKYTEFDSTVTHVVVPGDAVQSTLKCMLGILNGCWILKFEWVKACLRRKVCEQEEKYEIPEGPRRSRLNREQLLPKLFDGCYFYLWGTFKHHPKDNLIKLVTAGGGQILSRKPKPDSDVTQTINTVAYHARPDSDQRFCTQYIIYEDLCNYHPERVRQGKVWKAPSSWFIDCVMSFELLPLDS",
  "test": "ITC",
  "format": "binding",
  "data": [
    {"compound": "Nc1ncnc2c1ncn2[C@@H]1O[C@H](COP(=O)(O)OP(=O)(O)OC[C@H]2OC(O)[C@H](O)[C@@H]2O)[C@@H](O)[C@H]1O", "note": "(stereo partly shown) [ADP-ribose]", "values": [
      {"measurement": "Kd", "value": "~250", "unit": "nM"}
    ]}
  ]
}
